Measured values taken from patent publication US20250381243A1, “HETEROCYCLES AND USES THEREOF” (Kumquat Biosciences Inc., priority 2022, published 2025).
Read-outs that look alike come from different tables or passages of the source.

System: A549 cells
Test: Cell proliferation assay (CellTiter-Glo), cells with K-Ras G12S mutation
Assay type: cell-based
Conditions: Homo sapiens, read-out: Inhibition of A549 Cells (IC50)
Procedure: A549 (ATCC CRL-185) and LS123 (ATCC CRL-255) cell lines comprise a G12S mutation and can be used to assess Ras cellular signaling in vitro, e.g., in response to treatment with a compound described herein. A549 culture medium is prepared with RPMI-1640 and 10% heat-inactivated FBS. LS123 culture medium is prepared with RPMI-1640 and 10% heat-inactivated FBS. A CellTiter-Glo (CTG) luminescent based assay (Promega) is used to assess growth of the cells, as a measurement of the ability of the compounds herein to inhibit Ras signaling in the cells. The cells (e.g., 800 per well) are seeded in their respective culture medium in standard tissue culture-treated 384-well format plates (Falcon #08-772-116) or ultra-low attachment surface 384-well format plates (S-Bio #MS-9384WZ). The day after plating, cells are treated with a dilution series (e.g., a 10 point 3-fold dilution series) of the compounds herein (e.g., approximately 40 μl final volume per well). Cell viability can be monitored (e.g., approximately 6 days later) according to the manufacturer's recommended instructions, where CellTiter-Glo reagent is added (e.g., approximately 10 μl), vigorously mixed, covered, and placed on a plate shaker (e.g., approximately for 20 min) to ensure sufficient cell lysis prior to assessment of luminescent signal. The IC50 values are determined using the four parameter fit. The resulting IC50 value is a measurement of the ability of the test compound to reduce cell growth of Ras-driven cells (e.g., tumor cell lines) in vitro and/or in vivo.

IC50 (≤500 nM) [nM] | IC50 (500 nM to 5 μM (mixed units)) [nM] | Structure (SMILES)
≤ 500 |  | CN(C[C@@H]1CN(C(=O)n2cnc(F)n2)[C@@H]1C1(CC#N)CC1)c1nc(OC[C@@]23CCCN2C[C@H](F)C3)nc2c(F)c(-c3ccc(F)c4sc(N)c(C#N)c34)c(Cl)cc12 [Compound 108, 2-amino-4-(6-chloro-4-((((2S,3R)-2-(1-(cyanomethyl)cyclopropyl)-1-(3-fluoro-1H-1,2,4-triazole-1-carbonyl)azetidin-3-yl)methyl)(methyl)amino)-8-fluoro-2-(((2R,7aS)-2-fluorotetrahydro-1H-pyrrolizin-7a(5H)-yl)methoxy)quinazolin-7-yl)-7-fluorobenzo[b]thiophene-3-carbonitrile]
≤ 500 |  | C[C@@H]1[C@H](N(C)C(=O)n2cnc(F)n2)CCN1c1nc(OC[C@@]23CCCN2C[C@H](F)C3)nc2c(F)c(-c3ccc(F)c4sc(N)c(C#N)c34)c(Cl)cc12 [Compound 111, N-((2R,3R)-1-(7-(2-amino-3-cyano-7-fluorobenzo[b]thiophen-4-yl)-6-chloro-8-fluoro-2-(((2R,7aS)-2-fluorotetrahydro-1H-pyrrolizin-7a(5H)-yl)methoxy)quinazolin-4-yl)-2-methylpyrrolidin-3-yl)-3-fluoro-N-methyl-1H-1,2,4-triazole-1-carboxamide]
≤ 500 |  | CCC1N(C(=O)n2cncn2)CC12CN(c1nc(OC[C@@]34CCCN3C[C@H](F)C4)nc3c(F)c(-c4ccc(F)c5sc(N)c(C#N)c45)c(Cl)cc13)CCO2 (stereo partly drawn) [Compound 112, 2-amino-4-(6-chloro-4-(1-ethyl-2-(1H-1,2,4-triazole-1-carbonyl)-5-oxa-2,8-diazaspiro[3.5]nonan-8-yl)-8-fluoro-2-(((2R,7aS)-2-fluorotetrahydro-1H-pyrrolizin-7a(5H)-yl)methoxy)quinazolin-7-yl)-7-fluorobenzo[b]thiophene-3-carbonitrile]
 | 500 to 5000 | CC1CC2C(CCCN2c2nc(OC[C@@]34CCCN3C[C@H](F)C4)nc3c(F)c(-c4ccc(F)c5sc(N)c(C#N)c45)c(Cl)cc23)N1C(=O)n1cncn1 (stereo partly drawn) [Compound 113, 2-amino-4-(6-chloro-8-fluoro-2-(((2R,7aS)-2-fluorotetrahydro-1H-pyrrolizin-7a(5H)-yl)methoxy)-4-(2-methyl-1-(1H-1,2,4-triazole-1-carbonyl)octahydro-4H-pyrrolo[3,2-b]pyridin-4-yl)quinazolin-7-yl)-7-fluorobenzo[b]thiophene-3-carbonitrile]
≤ 500 |  | CCN(C(=O)n1cnc(F)n1)[C@@H]1CCN(c2nc(OC[C@@]34CCCN3C[C@H](F)C4)nc3c(F)c(-c4ccc(F)c5sc(N)c(C#N)c45)c(Cl)cc23)[C@@H]1C [Compound 115, N-((2R,3R)-1-(7-(2-amino-3-cyano-7-fluorobenzo[b]thiophen-4-yl)-6-chloro-8-fluoro-2-(((2R,7aS)-2-fluorotetrahydro-1H-pyrrolizin-7a(5H)-yl)methoxy)quinazolin-4-yl)-2-methylpyrrolidin-3-yl)-N-ethyl-3-fluoro-1H-1,2,4-triazole-1-carboxamide]
≤ 500 |  | CC(C)C1N(C(=O)n2cncn2)CC12CCCN(c1nc(OC[C@@]34CCCN3C[C@H](F)C4)nc3c(F)c(-c4ccc(F)c5sc(N)c(C#N)c45)c(Cl)cc13)C2 (stereo partly drawn) [Compound 116, 2-amino-4-(6-chloro-8-fluoro-2-(((2R,7aS)-2-fluorotetrahydro-1H-pyrrolizin-7a(5H)-yl)methoxy)-4-(1-isopropyl-2-(1H-1,2,4-triazole-1-carbonyl)-2,6-diazaspiro[3.5]nonan-6-yl)quinazolin-7-yl)-7-fluorobenzo[b]thiophene-3-carbonitrile]
≤ 500 |  | CC(C)[C@H]1N(C(=O)n2cncn2)C[C@]12CCCN(c1nc(OC[C@@]34CCCN3C[C@H](F)C4)nc3c(F)c(-c4ccc(F)c5sc(N)c(C#N)c45)c(Cl)cc13)C2 [Compound 118, 2-amino-4-(6-chloro-8-fluoro-2-(((2R,7aS)-2-fluorotetrahydro-1H-pyrrolizin-7a(5H)-yl)methoxy)-4-((1R,4R)-1-isopropyl-2-(1H-1,2,4-triazole-1-carbonyl)-2,6-diazaspiro[3.5]nonan-6-yl)quinazolin-7-yl)-7-fluorobenzo[b]thiophene-3-carbonitrile]
≤ 500 |  | CN(C(=O)n1cncn1)C1CCCN(c2nc(OC[C@@]34CCCN3C[C@H](F)C4)nc3c(F)c(-c4ccc(F)c5sc(N)c(C#N)c45)c(Cl)cc23)C1 (stereo partly drawn) [Compound 119, N-(1-(7-(2-amino-3-cyano-7-fluorobenzo[b]thiophen-4-yl)-6-chloro-8-fluoro-2-(((2R,7aS)-2-fluorotetrahydro-1H-pyrrolizin-7a(5H)-yl)methoxy)quinazolin-4-yl)piperidin-3-yl)-N-methyl-1H-1,2,4-triazole-1-carboxamide]
≤ 500 |  | COCC1([C@@H]2[C@H](CN(C)c3nc(OC[C@@]45CCCN4C[C@H](F)C5)nc4c(F)c(-c5ccc(F)c6sc(N)c(C#N)c56)c(Cl)cc34)CN2C(=O)n2cnc(F)n2)CC1 [Compound 120, 2-amino-4-(6-chloro-8-fluoro-4-((((2S,3R)-1-(3-fluoro-1H-1,2,4-triazole-1-carbonyl)-2-(1-(methoxymethyl)cyclopropyl)azetidin-3-yl)methyl)(methyl)amino)-2-(((2R,7aS)-2-fluorotetrahydro-1H-pyrrolizin-7a(5H)-yl)methoxy)quinazolin-7-yl)-7-fluorobenzo[b]thiophene-3-carbonitrile]
≤ 500 |  | CCC1N(C(=O)n2cncn2)CC12CCN(c1nc(OC[C@@]34CCCN3C[C@H](F)C4)nc3c(F)c(-c4ccc(F)c5sc(N)c(C#N)c45)c(Cl)cc13)C2 (stereo partly drawn) [Compound 123, (4R)-2-amino-4-(6-chloro-4-(1-ethyl-2-(1H-1,2,4-triazole-1-carbonyl)-2,6-diazaspiro[3.4]octan-6-yl)-8-fluoro-2-(((2R,7aS)-2-fluorotetrahydro-1H-pyrrolizin-7a(5H)-yl)methoxy)quinazolin-7-yl)-7-fluorobenzo[b]thiophene-3-carbonitrile]
≤ 500 |  | CN(C(=O)n1cncn1)C1CCN(c2nc(OC[C@@]34CCCN3C[C@H](F)C4)nc3c(F)c(-c4ccc(F)c5sc(N)c(C#N)c45)c(Cl)cc23)C1 (stereo partly drawn) [Compound 124, N-(1-(7-(2-amino-3-cyano-7-fluorobenzo[b]thiophen-4-yl)-6-chloro-8-fluoro-2-(((2R,7aS)-2-fluorotetrahydro-1H-pyrrolizin-7a(5H)-yl)methoxy)quinazolin-4-yl)pyrrolidin-3-yl)-N-methyl-1H-1,2,4-triazole-1-carboxamide]
≤ 500 |  | CC1C(N(C)C(=O)n2cncn2)CCN1c1nc(OC[C@@]23CCCN2C[C@H](F)C3)nc2c(F)c(-c3ccc(F)c4sc(N)c(C#N)c34)c(Cl)cc12 (stereo partly drawn) [Compound 125, N-(1-(7-(2-amino-3-cyano-7-fluorobenzo[b]thiophen-4-yl)-6-chloro-8-fluoro-2-(((2R,7aS)-2-fluorotetrahydro-1H-pyrrolizin-7a(5H)-yl)methoxy)quinazolin-4-yl)-2-methylpyrrolidin-3-yl)-N-methyl-1H-1,2,4-triazole-1-carboxamide]
≤ 500 |  | N#Cc1c(N)sc2c(F)ccc(-c3c(Cl)cc4c(N5CCCC6(C5)CN(C(=O)n5cncn5)C6C5CC5)nc(OC[C@@]56CCCN5C[C@H](F)C6)nc4c3F)c12 (stereo partly drawn) [Compound 127, 2-amino-4-(6-chloro-4-(1-cyclopropyl-2-(1H-1,2,4-triazole-1-carbonyl)-2,6-diazaspiro[3.5]nonan-6-yl)-8-fluoro-2-(((2R,7aS)-2-fluorotetrahydro-1H-pyrrolizin-7a(5H)-yl)methoxy)quinazolin-7-yl)-7-fluorobenzo[b]thiophene-3-carbonitrile]
